# Assay results as given in ChEMBL document CHEMBL3885881, “DrugMatrix”.
# Species on record: Rattus norvegicus
# Assay: DrugMatrix - Regimen: Daily Repeat
# Assay type: toxicity, organism-based, Sprague-Dawley
# Set-up: regimen Daily Repeat, gender Male, age 6-8 weeks
# Conditions: in vivo, po, route oral GAVAGE, vehicle .5 % CMC; for ABSOLUTE BASOPHIL / ABSOLUTE EOSINOPHIL / ABSOLUTE LYMPHOCYTE / ABSOLUTE MONOCYTE / BASOPHIL / ERYTHROCYTE COUNT / HEMATOCRIT / HEMOGLOBIN / LYMPHOCYTE / MEAN CORPUSCULAR HEMOGLOBIN / MEAN CORPUSCULAR HEMOGLOBIN CONCENTRATION / MEAN CORPUSCULAR VOLUME / NEUTROPHIL / NUCLEATED RED BLOOD CELLS / PLATELET COUNT / ABSOLUTE SEGMENTED NEUTROPHIL: tissue Blood; for ALANINE AMINOTRANSFERASE / ALKALINE PHOSPHATASE / ASPARTATE AMINOTRANSFERASE / BLOOD UREA NITROGEN / CARBON DIOXIDE / CHOLESTEROL / CREATINE PHOSPHOKINASE / CREATININE / GLUCOSE / LACTATE DEHYDROGENASE / LIPASE / PHOSPHORUS / POTASSIUM / SODIUM / TOTAL BILIRUBIN / TOTAL PROTEIN: tissue Plasma
# [1] = 0 mg/kg, 72 h, dose level Control, time 3 day
# [2] = 0 mg/kg, 120 h, dose level Control, time 5 day
# [3] = 0.06 mg/kg, 72 h, dose level Low, time 3 day
smiles,measurement,setting,value
CC(=O)CC(c1ccccc1)c1c(O)c2ccccc2oc1=O (stereo not given) [WARFARIN],ABSOLUTE BASOPHIL,[1],0 CELLS/uL
same,ABSOLUTE EOSINOPHIL,[1],284.5 CELLS/uL
same,ABSOLUTE LYMPHOCYTE,[1],11670.5 CELLS/uL
same,ABSOLUTE MONOCYTE,[1],420.83 CELLS/uL
same,BASOPHIL,[1],0%
same,ERYTHROCYTE COUNT,[1],5.38 x10E6/uL
same,HEMATOCRIT,[1],34.05%
same,HEMOGLOBIN,[1],12.75 G/DL
same,LYMPHOCYTE,[1],88.33%
same,MEAN CORPUSCULAR HEMOGLOBIN,[1],23.73 pg
same,MEAN CORPUSCULAR HEMOGLOBIN CONCENTRATION,[1],37.43 G/DL
same,MEAN CORPUSCULAR VOLUME,[1],63.4 fL
same,NEUTROPHIL,[1],7.17%
same,NUCLEATED RED BLOOD CELLS,[1],0 /100WBC
same,PLATELET COUNT,[1],1184.67 x10E3/uL
same,ALANINE AMINOTRANSFERASE,[1],45.33 u/L
same,ALKALINE PHOSPHATASE,[1],388.83 u/L
same,ASPARTATE AMINOTRANSFERASE,[1],84.83 u/L
same,BLOOD UREA NITROGEN,[1],15.5 mg/dL
same,CARBON DIOXIDE,[1],27 mmol/L
same,CHOLESTEROL,[1],76.67 mg/dL
same,CREATINE PHOSPHOKINASE,[1],301 u/L
same,CREATININE,[1],0.21 mg/dL
same,GLUCOSE,[1],168.83 mg/dL
same,LACTATE DEHYDROGENASE,[1],294.83 u/L
same,LIPASE,[1],9.8 u/L
same,PHOSPHORUS,[1],13.25 mg/dL
same,POTASSIUM,[1],6.41 MEQ/L
same,SODIUM,[1],143.72 MEQ/L
same,TOTAL BILIRUBIN,[1],0.22 mg/dL
same,TOTAL PROTEIN,[1],5.98 G/DL
same,ABSOLUTE BASOPHIL,[2],0 CELLS/uL
same,ABSOLUTE EOSINOPHIL,[2],190.67 CELLS/uL
same,ABSOLUTE LYMPHOCYTE,[2],12549.5 CELLS/uL
same,ABSOLUTE MONOCYTE,[2],276 CELLS/uL
same,ABSOLUTE SEGMENTED NEUTROPHIL,[2],1067.17 CELLS/uL
same,BASOPHIL,[2],0%
same,ERYTHROCYTE COUNT,[2],5.66 x10E6/uL
same,HEMATOCRIT,[2],35.92%
same,HEMOGLOBIN,[2],13.65 G/DL
same,LYMPHOCYTE,[2],89%
same,MEAN CORPUSCULAR HEMOGLOBIN,[2],24.12 pg
same,MEAN CORPUSCULAR HEMOGLOBIN CONCENTRATION,[2],38.03 G/DL
same,MEAN CORPUSCULAR VOLUME,[2],63.47 fL
same,NEUTROPHIL,[2],7.67%
same,NUCLEATED RED BLOOD CELLS,[2],0.17 /100WBC
same,PLATELET COUNT,[2],1251.67 x10E3/uL
same,ALANINE AMINOTRANSFERASE,[2],43.33 u/L
same,ALKALINE PHOSPHATASE,[2],365.67 u/L
same,ASPARTATE AMINOTRANSFERASE,[2],83.67 u/L
same,BLOOD UREA NITROGEN,[2],18.17 mg/dL
same,CARBON DIOXIDE,[2],28.67 mmol/L
same,CHOLESTEROL,[2],71.5 mg/dL
same,CREATINE PHOSPHOKINASE,[2],284.5 u/L
same,CREATININE,[2],0.21 mg/dL
same,GLUCOSE,[2],161.67 mg/dL
same,LACTATE DEHYDROGENASE,[2],259.67 u/L
same,LIPASE,[2],9.5 u/L
same,PHOSPHORUS,[2],12.45 mg/dL
same,POTASSIUM,[2],6.49 MEQ/L
same,SODIUM,[2],144.25 MEQ/L
same,TOTAL BILIRUBIN,[2],0.2 mg/dL
same,TOTAL PROTEIN,[2],6.1 G/DL
same,ABSOLUTE BASOPHIL,[3],0 CELLS/uL
same,ABSOLUTE EOSINOPHIL,[3],18.67 CELLS/uL
same,ABSOLUTE LYMPHOCYTE,[3],6429.67 CELLS/uL
same,ABSOLUTE MONOCYTE,[3],120.33 CELLS/uL
same,ABSOLUTE SEGMENTED NEUTROPHIL,[3],364.67 CELLS/uL
same,BASOPHIL,[3],0%
same,ERYTHROCYTE COUNT,[3],5.26 x10E6/uL
same,HEMATOCRIT,[3],33.97%
same,HEMOGLOBIN,[3],12.8 G/DL
same,LYMPHOCYTE,[3],92.67%
same,MEAN CORPUSCULAR HEMOGLOBIN,[3],24.33 pg
same,MEAN CORPUSCULAR HEMOGLOBIN CONCENTRATION,[3],37.67 G/DL
same,MEAN CORPUSCULAR VOLUME,[3],64.6 fL
same,NEUTROPHIL,[3],5.33%
same,NUCLEATED RED BLOOD CELLS,[3],0 /100WBC
same,PLATELET COUNT,[3],1234.33 x10E3/uL
same,ALANINE AMINOTRANSFERASE,[3],50 u/L
same,ALKALINE PHOSPHATASE,[3],307.67 u/L
same,ASPARTATE AMINOTRANSFERASE,[3],80.67 u/L
same,BLOOD UREA NITROGEN,[3],15.33 mg/dL
same,CARBON DIOXIDE,[3],28.67 mmol/L
same,CHOLESTEROL,[3],72.67 mg/dL
same,CREATINE PHOSPHOKINASE,[3],222.67 u/L
same,CREATININE,[3],0.21 mg/dL
same,GLUCOSE,[3],142.33 mg/dL
same,LACTATE DEHYDROGENASE,[3],174.67 u/L
same,LIPASE,[3],9.5 u/L
same,PHOSPHORUS,[3],12.87 mg/dL
same,POTASSIUM,[3],6.97 MEQ/L
same,SODIUM,[3],146.9 MEQ/L
same,TOTAL BILIRUBIN,[3],0.23 mg/dL
same,TOTAL PROTEIN,[3],6.03 G/DL
